We go through four compounds from PMC8468039, “Development of New Meridianin/Leucettine-Derived Hybrid Small Molecules as Nanomolar Multi-Kinase Inhibitors with Antitumor Activity” (Biomedicines, 2021).

Where “and” joins values, the source holds several entries; their conditions need not be identical. Identical values can stand only once. Like-named read-outs stand apart in the source and are kept apart here.

Assay [1] concerns the target T1, DAPK1 (Homo sapiens, UniProt P53355).
T1 construct: purchased Reaction Biology Corp
Put plainly: In vitro kinase inhibition assay (HotSpot, Reaction Biology). The assay is classed as biochemical. To be noted: single dose of 10 µM; read-out: Percent Inhibition, DAPK1. The method, then:
(§1) The in vitro kinase inhibition assay was carried out by Reaction Biology Corp. (Reaction Biology Corp., Chester, PA, USA) Kinase HotSpot^SM service (http://www.reactionbiology.com, accessed on 15 January 2021), following the previously reported methods. (For details, see Supplementary Material).
(§2) As mentioned in the introduction, to get insights about the kinase inhibition profile of the hybrid small molecule 5a, an in vitro screening over a panel of 14 cancer-related kinases was carried out. Accordingly, 10 µM concentrations of compound 5a were used in a kinase inhibition assay over various kinase groups and families in the presence of 10 µM ATP using HotSpotSM technology. To get a comprehensive picture of the inhibitory activities of the tested compound (5a) against the kinase panel, data are illustrated in Table 1. […] Compound 5a was also able to suppress the kinase activity of the epidermal growth factor receptor (EGFR), platelet-derived growth factor receptor-alpha (PDGFRα), and cyclin-dependent kinase 2 (CDK2) with modest inhibition values of 26.99 ± 0.9, 24.0 ± 0.4, and 20.1 ± 0.1%, respectively. […] Several studies have confirmed direct relationships between the most affected kinases (FMS, LCK, LYN, and DAPK1) and different human disorders including cancer.
(§3) 5. Protocol of Kinase assay
(§4) Kinases inhibitory activities were assessed by the HotSpot assay platform, which contained specific kinase/substrate pairs along with required cofactors. Base reaction buffer: 20 mM Hepes (pH 7.5), 10 mM MgCl2, 1 mM EGTA, 0.02% Brij35, 0.02 mg/ml BSA, 0.1 mM Na3VO4, 2 mM DTT, 1% DMSO. Testing compounds were dissolved in 100% DMSO to specific concentration. The serial dilution was conducted by Integra Viaflo Assist in DMSO. The reaction mixture containing the examined compound and 33P-ATP was incubated at room temperature for 2h and radioactivity was detected by filter-binding method. Kinase activity data were expressed as the percent remaining kinase activity in test samples compared to vehicle (dimethyl sulfoxide) reactions. IC50 values and curve fits were obtained using Prism (GraphPad Software).
(§5) 6. Biology raw data for IC50 determination
(§6) Paper ID Cpd ID NSC Number

For assay [2], the target named is T2, LCK (Homo sapiens, UniProt P06239).
T2 construct: purchased Reaction Biology Corp
Described as above. To be noted: for inhibition at 10 µM: single dose of 10 µM, 10 µM ATP as printed, read-out: Percent Inhibition, LCK. The assay is classed as biochemical. As for the experimental part: as §1, §2, §3, §4, §5, §6

Assay [3] addresses T3, LYN (Homo sapiens, UniProt P07948).
T3 construct: purchased Reaction Biology Corp
The description is as above. The assay is classed as biochemical. The following applies: for inhibition at 10 µM: single dose of 10 µM, 10 µM ATP as printed, read-out: Percent Inhibition, LYN. The method, then:
as §1, §2, §3, §4, §5, §6

For assay [4], the system named is SF-539. Kind of assay: NCI growth inhibition (SRB) assay. Format: cell-based. To be noted: Homo sapiens, SF-539, CNS Cancer, single dose 10 µM, 48 h, read-out: Percent Growth Inhibition (GI). The method, then: (§7) The antitumor assay was performed according to the protocol of the Drug Evaluation Branch, NCI, Bethesda. A 48 h drug exposure protocol was adopted, and sulforhodamine B (SRB) assay was utilized to assess the cell growth and viability, as reported earlier.
(§8) The inhibition results of tumor cell growth by the newly synthesized compounds (5a–5g) are described in Table 4. The reported measurements have been performed at the NIH National Cancer Institute, USA by a standardized assay including a panel of 60 different tumor cell lines (Supplementary Data). The following cancer cell types were included in these assays: Leukemia, non-small cell lung cancer, colon cancer, CNS cancer, melanoma, ovarian cancer, renal cancer, prostate, and breast cancer. […] Additionally, the 3,4-dimethoxy substituted compound (5b) also suffered poor activity against the cancer cell lines.

Assay [5] relates to T-47D. Put plainly: NCI growth inhibition (SRB) assay. The assay is classed as cell-based. To be noted: Homo sapiens, T47D, Breast Cancer, single dose 10 µM, 48 h, read-out: Percent Growth Inhibition (GI). The method, then:
as §7, §8

The test system of assay [6] is 786-0. Kind of assay: NCI growth inhibition (SRB) assay. Format: cell-based. To be noted: Homo sapiens, 786-0, Renal Cancer, single dose 10 µM, 48 h, read-out: Percent Growth Inhibition (GI). As for the experimental part:
as §7, §8

Assay [7] has as its system ACHN. Kind of assay: NCI growth inhibition (SRB) assay. The assay is classed as cell-based. The following applies: Homo sapiens, Renal Cancer, single dose 10 µM, 48 h, read-out: Percent Growth Inhibition (GI). The method, then: as §7, §8
Assay [8] has as its system SR. Kind of assay: NCI growth inhibition (SRB) assay. The assay is classed as cell-based. The method, then:
as §7, §8

The subject of assay [9] is MOLT-4. Put plainly: NCI growth inhibition (SRB) assay. Format: cell-based. To be noted: Homo sapiens, MOLT-4, Leukemia, single dose 10 µM, 48 h, read-out: Percent Growth Inhibition (GI). As for the experimental part: as §7, §8
For assay [10], the system named is HS 578T. Put plainly: NCI growth inhibition (SRB) assay. The assay is classed as cell-based. To be noted: Homo sapiens, Breast Cancer, single dose 10 µM, 48 h, read-out: Percent Growth Inhibition (GI). The method, then:
as §7, §8

In assay [11] the test system is HCT-15. Put plainly: NCI growth inhibition (SRB) assay. Format: cell-based. To be noted: Homo sapiens, HCT-15, Colon Cancer, single dose 10 µM, 48 h, read-out: Percent Growth Inhibition (GI). As for the experimental part: as §7, §8
Assay [12] has as its system MCF7. Put plainly: NCI growth inhibition (SRB) assay. The assay is classed as cell-based. The following applies: Homo sapiens, MCF7, Breast Cancer, single dose 10 µM, 48 h, read-out: Percent Growth Inhibition (GI). As for the experimental part:
as §7, §8

Assay [13] has as its system IGROV1. Put plainly: NCI growth inhibition (SRB) assay. The assay is classed as cell-based. To be noted: Homo sapiens, IGROV-1, IGROV1, Ovarian Cancer, single dose 10 µM, 48 h, read-out: Percent Growth Inhibition (GI). The method, then: as §7, §8
The test system of assay [14] is KM12. Put plainly: NCI growth inhibition (SRB) assay. Format: cell-based. The following applies: Homo sapiens, KM12, Colon Cancer, single dose 10 µM, 48 h, read-out: Percent Growth Inhibition (GI). The method, then:
as §7, §8

The test system of assay [15] is A498. Kind of assay: NCI growth inhibition (SRB) assay. Format: cell-based. The following applies: Homo sapiens, A498, Renal Cancer, single dose 10 µM, 48 h, read-out: Percent Growth Inhibition (GI). The method, then: as §7, §8
Assay [16] has as its system CAKI-1. Put plainly: NCI growth inhibition (SRB) assay. The assay is classed as cell-based. To be noted: Homo sapiens, CAKI-1, Renal Cancer, single dose 10 µM, 48 h, read-out: Percent Growth Inhibition (GI). As for the experimental part:
as §7, §8

Assay [17] concerns HCT-116. Put plainly: NCI growth inhibition (SRB) assay. The assay is classed as cell-based. The following applies: Homo sapiens, HCT-116, Colon Cancer, single dose 10 µM, 48 h, read-out: Percent Growth Inhibition (GI). The method, then: as §7, §8
Assay [18] has as its system RXF 393. Put plainly: NCI growth inhibition (SRB) assay. The assay is classed as cell-based. The following applies: RXF 393, Renal Cancer, single dose 10 µM; for inhibition at 10 µM: Homo sapiens, read-out: Percent Growth Inhibition (GI). As for the experimental part: as §7, §8
The target in assay [19] is T4, FMS (Homo sapiens, UniProt P07333).
T4 construct: purchased Reaction Biology Corp
Put plainly: In vitro kinase inhibition assay (HotSpot, Reaction Biology). Format: biochemical. To be noted: for IC50: 10-dose, 3-fold serial dilution starting at 100 μM; for fold more potent than imatinib over FMS: from IC50 values; for inhibition at 10 µM: read-out: Percent Inhibition, FMS. As for the experimental part:
as §1, §2, §3, §4

[20] abbreviates: Homo sapiens, Leukemia, single dose 10 µM, 48 h, read-out: Percent Growth Inhibition (GI).
The mark [21] stands for this setting: single dose of 10 µM, 10 µM ATP as printed.
Where [22] appears, read: 10-dose, 3-fold serial dilution starting at 100 μM.

T4 sequence (P07333 20-972): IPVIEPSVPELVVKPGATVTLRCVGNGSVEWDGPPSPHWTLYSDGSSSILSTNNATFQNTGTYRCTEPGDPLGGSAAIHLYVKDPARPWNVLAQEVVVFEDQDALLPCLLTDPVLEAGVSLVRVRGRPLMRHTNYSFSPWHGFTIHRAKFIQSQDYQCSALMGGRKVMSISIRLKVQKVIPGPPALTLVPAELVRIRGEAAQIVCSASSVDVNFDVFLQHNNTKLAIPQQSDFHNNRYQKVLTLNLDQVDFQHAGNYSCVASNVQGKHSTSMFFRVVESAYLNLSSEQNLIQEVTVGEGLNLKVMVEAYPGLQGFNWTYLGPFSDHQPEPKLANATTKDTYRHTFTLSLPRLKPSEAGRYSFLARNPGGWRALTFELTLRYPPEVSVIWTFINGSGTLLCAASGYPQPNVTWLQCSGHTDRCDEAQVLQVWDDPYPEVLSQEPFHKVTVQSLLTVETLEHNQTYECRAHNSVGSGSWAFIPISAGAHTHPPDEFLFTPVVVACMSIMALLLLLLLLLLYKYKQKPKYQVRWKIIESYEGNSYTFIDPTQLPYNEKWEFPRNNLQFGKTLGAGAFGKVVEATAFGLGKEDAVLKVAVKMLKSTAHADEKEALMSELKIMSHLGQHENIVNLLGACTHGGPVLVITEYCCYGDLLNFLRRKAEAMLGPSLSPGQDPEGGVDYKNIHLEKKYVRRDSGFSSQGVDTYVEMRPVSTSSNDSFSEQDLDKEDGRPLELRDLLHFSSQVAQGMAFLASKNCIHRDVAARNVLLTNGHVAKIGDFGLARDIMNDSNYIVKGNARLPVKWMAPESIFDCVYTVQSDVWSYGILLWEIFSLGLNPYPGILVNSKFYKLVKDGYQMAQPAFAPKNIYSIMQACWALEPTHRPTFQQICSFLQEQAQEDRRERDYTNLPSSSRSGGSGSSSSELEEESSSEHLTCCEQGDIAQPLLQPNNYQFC
T2 sequence (P06239 whole entry): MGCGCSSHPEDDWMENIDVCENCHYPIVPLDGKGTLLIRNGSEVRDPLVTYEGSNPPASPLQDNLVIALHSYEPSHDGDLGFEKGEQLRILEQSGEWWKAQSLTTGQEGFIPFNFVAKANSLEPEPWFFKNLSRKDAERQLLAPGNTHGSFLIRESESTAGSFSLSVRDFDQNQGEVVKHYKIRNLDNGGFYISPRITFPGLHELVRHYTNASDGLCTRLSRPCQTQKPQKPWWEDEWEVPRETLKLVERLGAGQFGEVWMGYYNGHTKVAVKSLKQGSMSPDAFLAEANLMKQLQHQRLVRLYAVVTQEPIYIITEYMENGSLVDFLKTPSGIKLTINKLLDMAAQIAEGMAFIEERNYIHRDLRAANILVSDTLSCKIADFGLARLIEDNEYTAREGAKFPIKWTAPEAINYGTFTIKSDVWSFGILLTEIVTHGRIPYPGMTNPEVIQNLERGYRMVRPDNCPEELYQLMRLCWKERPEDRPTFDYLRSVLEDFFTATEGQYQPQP
T3 sequence (P07948 whole entry): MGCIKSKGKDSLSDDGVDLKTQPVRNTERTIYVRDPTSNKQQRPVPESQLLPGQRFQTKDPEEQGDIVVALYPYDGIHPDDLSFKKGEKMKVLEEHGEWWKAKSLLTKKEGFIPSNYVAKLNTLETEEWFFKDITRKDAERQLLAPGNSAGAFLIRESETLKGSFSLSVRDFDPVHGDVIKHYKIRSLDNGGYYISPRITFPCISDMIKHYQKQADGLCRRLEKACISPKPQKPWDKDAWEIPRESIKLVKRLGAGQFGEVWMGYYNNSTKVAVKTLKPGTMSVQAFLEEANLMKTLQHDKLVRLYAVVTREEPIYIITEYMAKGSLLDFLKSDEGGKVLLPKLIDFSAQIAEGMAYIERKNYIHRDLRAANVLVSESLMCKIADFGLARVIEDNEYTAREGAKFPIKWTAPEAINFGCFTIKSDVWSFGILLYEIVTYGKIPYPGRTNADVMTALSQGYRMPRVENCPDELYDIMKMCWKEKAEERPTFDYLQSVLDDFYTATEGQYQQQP
T1 sequence (P53355 whole entry): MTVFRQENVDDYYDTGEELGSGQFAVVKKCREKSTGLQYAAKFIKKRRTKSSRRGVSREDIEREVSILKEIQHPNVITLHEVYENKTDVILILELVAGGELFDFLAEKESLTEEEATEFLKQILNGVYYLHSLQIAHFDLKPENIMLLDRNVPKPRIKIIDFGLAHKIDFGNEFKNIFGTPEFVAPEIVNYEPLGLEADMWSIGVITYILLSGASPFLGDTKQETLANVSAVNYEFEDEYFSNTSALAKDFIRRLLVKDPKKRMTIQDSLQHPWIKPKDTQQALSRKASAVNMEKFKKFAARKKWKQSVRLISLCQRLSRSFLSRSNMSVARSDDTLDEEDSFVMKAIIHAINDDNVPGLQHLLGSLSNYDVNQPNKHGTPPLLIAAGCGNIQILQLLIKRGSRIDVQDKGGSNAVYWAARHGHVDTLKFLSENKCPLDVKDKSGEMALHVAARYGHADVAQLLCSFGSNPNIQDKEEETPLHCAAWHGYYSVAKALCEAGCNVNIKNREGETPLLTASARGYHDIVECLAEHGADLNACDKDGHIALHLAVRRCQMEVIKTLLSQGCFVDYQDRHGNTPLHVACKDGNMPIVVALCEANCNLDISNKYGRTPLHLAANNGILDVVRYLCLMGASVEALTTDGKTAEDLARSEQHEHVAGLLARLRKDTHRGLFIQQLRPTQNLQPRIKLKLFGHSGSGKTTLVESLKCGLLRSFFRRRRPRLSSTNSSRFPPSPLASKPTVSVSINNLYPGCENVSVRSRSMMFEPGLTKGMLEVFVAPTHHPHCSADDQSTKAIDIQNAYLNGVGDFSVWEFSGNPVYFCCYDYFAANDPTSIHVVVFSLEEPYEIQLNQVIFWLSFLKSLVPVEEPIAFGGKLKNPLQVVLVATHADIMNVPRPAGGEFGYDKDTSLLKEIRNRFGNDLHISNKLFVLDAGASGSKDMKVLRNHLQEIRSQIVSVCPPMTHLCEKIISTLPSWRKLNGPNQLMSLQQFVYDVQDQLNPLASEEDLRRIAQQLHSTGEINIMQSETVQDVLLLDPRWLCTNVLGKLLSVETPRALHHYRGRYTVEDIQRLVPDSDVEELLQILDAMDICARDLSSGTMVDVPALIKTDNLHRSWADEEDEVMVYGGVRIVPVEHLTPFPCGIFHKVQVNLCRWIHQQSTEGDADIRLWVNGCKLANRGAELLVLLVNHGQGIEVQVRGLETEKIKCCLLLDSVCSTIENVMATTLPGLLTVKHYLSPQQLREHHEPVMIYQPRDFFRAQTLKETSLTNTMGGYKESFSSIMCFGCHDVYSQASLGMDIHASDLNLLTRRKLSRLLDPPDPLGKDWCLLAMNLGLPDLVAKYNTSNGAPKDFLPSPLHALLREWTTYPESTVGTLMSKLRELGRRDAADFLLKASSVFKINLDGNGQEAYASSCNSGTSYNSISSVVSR

In the case of `CCOc1cc(OCC)cc(C(=O)Nc2cnc(Nc3ccc(N4CCOCC4)cc3)nc2Oc2ccc(OC)cc2)c1` [5d, 3,5-Diethoxy-N-(4-(4-methoxyphenoxy)-2-((4-morpholinophenyl)amino)pyrimidin-5-yl)benzamide], the inhibition (in general, the drop in the measured response relative to a control, in per cent) at 10 µM was found to be 51.6 ± 0.5% in assay [1]; 38.3 ± 4.2% in assay [2]; 31.5 ± 5.8% in assay [3]; 8.01% in [4]; 18.4% in assay [5]; 7.41% in [6]. Further, the inhibition at 10 µM in assay [7] worked out at 20.4%; in assay [8] (setting [20]), 33.2%; in assay [9], 38.2%; in assay [10], 7.96%; in assay [11] it was 13.2%; in [12] it was 14.4%. The inhibition at 10 µM in assay [13] turned out to be 0.72%; in assay [14], 14%; in assay [15] it was 17.9%; in assay [16] it was 20.6%; in assay [17], 6.73%; in [18] (48 h), 27.5%. In addition, the inhibition at 10 µM in assay [19] (setting [21]) was determined as 95.1 ± 0.3%. Moreover, the IC50 (in general, the concentration needed to halve the response being measured) in assay [19] turned out to be 213 ± 1 nM. For the same compound, the “fold more potent than imatinib over FMS” value in assay [19] was approximately 5 fold.

On to `COc1ccc(Oc2nc(Nc3ccc(N4CCOCC4)cc3)ncc2NC(=O)c2ccnc([N+](=O)[O-])c2)cc1` [5f, N-(4-(4-Methoxyphenoxy)-2-((4-morpholinophenyl)amino)pyrimidin-5-yl)-2-nitroisonicotinamide], for which the inhibition at 10 µM in assay [1] came out at 65.5 ± 1.4%; in [2], 72.6 ± 0.6%; in assay [3], 34.1 ± 2.2%; in assay [4] it was 7.72%; in assay [5] it was 5.93%; in assay [6], 5.78%. Besides, the inhibition at 10 µM was 1.61% in assay [7]; 27.4% in [8] (setting [20]); -5.98% in assay [9]; 6.7% in [10]; 32.8% in [11]; 12.5% in [12]. Further, the inhibition at 10 µM is 1.91% in [13]; -1.85% in assay [14]; 6.39% in [15]; 13.7% in [16]; -0.19% in [17]; -0.36% in assay [18] (48 h). Besides, in assay [19] (setting [21]), the inhibition at 10 µM is 65.4 ± 0.1%.

For `COc1ccc(Oc2nc(Nc3ccc(N4CCOCC4)cc3)ncc2NC(=O)c2cccc(SC)c2)cc1` [5g, N-(4-(4-Methoxyphenoxy)-2-((4-morpholinophenyl)amino)pyrimidin-5-yl)-3-(methylthio)benzamide], the inhibition at 10 µM was 54.6 ± 0.8% in [1]; 96.9 ± 0.3% in assay [2]; 96.4 ± 0.1% in assay [3]; 21.1% in [4]; 28.2% in assay [5]; 25% in [6]. For the same compound, the inhibition at 10 µM in assay [7] came out at 21.4%; in [8] (Homo sapiens, 48 h, Leukemia, single dose 10 µM, read-out: Percent Growth Inhibition (GI)) it was 60%; in assay [9], 43.1%; in assay [10], 22.7%; in assay [11] it was 31.7%; in assay [12], 21.5%. In addition, the inhibition at 10 µM in assay [13] is 33.9%; in assay [14] it was 20.2%; in [15], 18.9%; in assay [16], 29.4%; in assay [17] it was 23.7%; in assay [18] (RXF 393, 48 h) it was 70%. For the same compound, the inhibition at 10 µM in [19] stood at 90.6 ± 0.8%. Further, the IC50 in assay [2] (setting [22]) turned out to be 87.7 ± 8.3 nM; in assay [3] (setting [22]) it was 169 ± 31 nM; in [19] it was 110 ± 8 nM. In assay [2] (from IC50 values), the “fold more potent than imatinib over LCK” value is recorded as approximately 2 fold. Also, the “Percent Growth Inhibition (GI)” value in assay [8] (Leukemia, single dose 10 µM, 48 h) amounted to 60.5%; in [18] (48 h) it was 70.1%. Moreover, the “fold more potent than imatinib over FMS” value in assay [19] was ~ 9 fold and 9 fold.

Take `COc1ccc(Oc2nc(Nc3ccc(N4CCOCC4)cc3)ncc2NC(=O)c2ccc(OC)c(OC)c2)cc1` [5b, 3,4-Dimethoxy-N-(4-(4-methoxyphenoxy)-2-((4-morpholinophenyl)amino)pyrimidin-5-yl)benzamide]: the inhibition at 10 µM in assay [1] was 65 ± 1.2%; in assay [2] it was 62.3 ± 0.8%; in assay [3] it was 36.9 ± 4.5%; in assay [4], -3.17%; in assay [5], 2.41%; in assay [6], 17.6%. The inhibition at 10 µM in assay [7] was -7.28%; in assay [8] (setting [20]), 18.8%; in assay [9], 19.9%; in [10], 5.09%; in assay [11], 12.3%; in assay [12], 4.24%. For the same compound, the inhibition at 10 µM in [13] was 3.6%; in assay [14], -4.34%; in assay [15], -5.56%; in assay [16], 20.6%; in [17] it was 6.01%; in assay [18] (48 h), 20.4%. In addition, in assay [19] (setting [21]), the inhibition at 10 µM turned out to be 44.1 ± 0.2%.
